# Measured values as given in patent US8263530B2, “Agrochemical formulations containing microcapsules” (priority 2006, dated 2012).
# Assay: Storage stability: content of active ingredient in water dispersible granules
# Format: physicochemical
# Description: A test on the storage stability was performed with the following results:
# Comparison of stability of fluoroxypyr and metsulfuon-methyl when a WG granulation is made according to U.S. Pat. No. 5,688,743 (Dow) and the encapsulation step has been omitted and replaced by a joint milling of the corresponding amount of fluoroxypyr and metsulfuron-methyl: […]
# [1] = FXY + MET 26 WG (Fluroxypyr 250 g/kg + Metsulfuron 10 g/kg WG, microencapsulated fluroxypyr), test item FXY-MSF_0604, column without storage
# [2] = FXY + MET 26 WG (microencapsulated fluroxypyr), GLASS, 0 ± 2° C., after storage
# [3] = FXY + MET 26 WG (microencapsulated fluroxypyr), GLASS, 54 ± 2° C., after storage
# [4] = FXY + MET 26 WG (microencapsulated fluroxypyr), PLASTIC, 0 ± 2° C., after storage
# [5] = FXY + MET 26 WG (microencapsulated fluroxypyr), PLASTIC, 54 ± 2° C., after storage
# [6] = Fluroxypyr 250 g/kg + Metsulfuron 10 g/kg WG WITHOUT microencapsulation of fluroxypyr (joint milling, per US 5,688,743), test item FXY-MSF_060/, column without storage
# [7] = WG WITHOUT microencapsulation of fluroxypyr, GLASS, 0 ± 2° C., after storage
# [8] = WG WITHOUT microencapsulation of fluroxypyr, GLASS, 54 ± 2° C., after storage
# [9] = WG WITHOUT microencapsulation of fluroxypyr, PLASTIC, 0 ± 2° C., after storage
# [10] = WG WITHOUT microencapsulation of fluroxypyr, PLASTIC, 54 ± 2° C., after storage
SMILES,Content of active ingredient [1] [wt-%],Content of active ingredient [2] [wt-%],Content of active ingredient [3] [wt-%],Content of active ingredient [4] [wt-%],Content of active ingredient [5] [wt-%],Content of active ingredient [6] [wt-%],Content of active ingredient [7] [wt-%],Content of active ingredient [8] [wt-%],Content of active ingredient [9] [wt-%],Content of active ingredient [10] [wt-%]
Nc1c(Cl)c(F)nc(OCC(=O)O)c1Cl [Fluroxypyr],39.37,38.65,38.57,38.51,38.35,39.41,34.44,28.02,36.34,16.05
COc1nc(C)nc(NC(=O)NS(=O)(=O)c2ccccc2C(=O)O)n1 [Metsulfuron],1.18,1.18,1.18,1.19,1.18,1.16,0.35,0.21,0.39,0.24
